# Source: the OPERA property sets (Mansouri et al. 2018)
row,SMILES,logP
1,COC(=O)C1(S(=O)(=O)c2ccc(C)cc2)CC1,1.77
2,COC(=O)C1(S(=O)(=O)c2ccc([N+](=O)[O-])cc2)CC1,1.33
3,COC(=O)C1(S(=O)(=O)c2ccc(Br)cc2)CCC1,2.45
4,COC(=O)C1(S(=O)(=O)c2ccccc2)CC1,1.43
5,COC(=O)C1(S(=O)(=O)c2ccc(Br)cc2)CC1,2.32
6,COC(=O)C1(S(=O)(=O)c2ccccc2)CCC1,1.63
7,CCOC(=O)C1(S(=O)(=O)c2ccc(C)cc2)CC1,2.23
8,COC(=O)C1(S(=O)(=O)c2ccccc2)CCCC1,1.98
9,CC(C)(C)OC(=O)C1(S(=O)(=O)c2ccc(Cl)cc2)CC1,2.68
10,COC(=O)C1(S(=O)(=O)c2ccccc2)CCCCC1,2.3
11,CCOC(=O)C1(S(=O)(=O)c2ccc(C)cc2)CCC1,2.31

# Other lines, results leading:
row,logP,SMILES
1,3.16,CC(C)OC(=O)C1(S(=O)(=O)c2ccc(Cl)cc2)CCCC1
2,2.28,COC(=O)C1(S(=O)(=O)c2ccc(Cl)cc2)CCC1
3,2.73,COC(=O)C1(S(=O)(=O)c2ccc(Br)cc2)CCCC1
4,2.03,COC(=O)C1(S(=O)(=O)c2ccc(Cl)cc2)CC1
5,2.78,Cc1ccc(S(=O)(=O)C2(C(=O)OC(C)C)CCC2)cc1
6,2.05,CC(C)OC(=O)C1(S(=O)(=O)c2ccc([N+](=O)[O-])cc2)CC1
7,2.36,CC(C)OC(=O)C1(S(=O)(=O)c2ccc([N+](=O)[O-])cc2)CCC1
8,3.41,CC(C)OC(=O)C1(S(=O)(=O)c2ccc([N+](=O)[O-])cc2)CCCCCC1
9,2.52,Cc1ccc(S(=O)(=O)C2(C(=O)OC(C)C)CC2)cc1
10,2.64,CC(C)OC(=O)C1(S(=O)(=O)c2ccc(Cl)cc2)CC1
11,2.94,COC(=O)C1(S(=O)(=O)c2ccc(Br)cc2)CCCCC1
12,2.84,CC(C)OC(=O)C1(S(=O)(=O)c2ccc([N+](=O)[O-])cc2)CCCCC1
